Results as given in patent US6395293B2, “Biodegradable implant precursor” (Atrix Laboratories, priority 1989, dated 2002).

How the values were obtained:
[1] = Cumulative release of flurbiprofen from implant matrix at different polymer concentrations; assay type: physicochemical; details: about 5% flurbiprofen; for cumulative release: about 55% poly(DL-lactide); for cumulative percent release: polymer concentration about 45%
From the text: The release rate of the bioactive agent from the implant matrix may also be adjusted by varying the concentration of the polymer in the polymer solution. For example, the more dilute the polymer concentration, the more readily the bioactive agent will be released from the implant matrix. For example, in a system containing about 5% flurbiprofen and a polymer concentration of about 55% poly(DL-lactide), a cumulative release of about 11.4% at day 1 and about 23% at day 7 may be provided. With a polymer concentration of about 45%, the cumulative percent release is about 23% at day 1 and about 40% at day 7.

[2] = Ex vivo release of bioactive agent from poly(DL-lactide) implant matrix, with and without release rate modification agent; assay type: physicochemical
From the text: The use of a release rate modification agent may either decrease or increase the release of the bioactive agent in the range of multiple orders of magnitude (e.g., 1 to 10 to 100), preferably up to a ten-fold change, as compared to the release of a bioactive agent from a solid matrix without the release rate modification agent. For example, naltrexone and doxycycline are substantially completely released from a polymer matrix comprised of poly(DL-lactide) within about 2-3 days ex vivo. With the addition of a release rate modification agent such as ethyl heptanoate which is hydrophobic to the polymer solution, and formation of the implant matrix through interaction of the polymer solution and an aqueous medium, the release rate of naltrexone or doxycycline can be slowed to produce substantially complete release of the drug within about seven days. With the inclusion of a greater amount of a release rate modification agent into the polymer solution, the time period of the release can be increased to about fourteen days. Other release rate modification agents which are hydrophilic such as polyethylene glycol may increase the release of the bioactive agent. […]

Structure (SMILES) | cumulative release ([1]; day 1) | cumulative release ([1]; day 7) | cumulative percent release ([1]; day 1) | cumulative percent release ([1]; day 7) | time period of the release ([2]; poly(DL-lactide) matrix with a greater amount of release rate modification agent) | time to substantially complete release from polymer matrix ([2]; poly(DL-lactide) matrix with ethyl heptanoate added as release rate modification agent)
CC(C(=O)O)c1ccc(-c2ccccc2)c(F)c1 (stereo not drawn) [flurbiprofen] | about 11.4% | about 23% | about 23% | about 40% | – | –
O=C1CC[C@@]2(O)[C@H]3Cc4ccc(O)c5c4[C@@]2(CCN3CC2CC2)[C@H]1O5 [naltrexone] | – | – | – | – | about fourteen | about seven
